Legend:
[1] = system: rRNA (16SrRNA and 23SrRNA); assay: Influence of EMA plus visible light on isolated E. coli nucleic acid in vitro (agarose gel electrophoresis), rRNA bands; format: biochemical; conditions: visible light 500 W halogen bulb 20 min
Procedure: (§1) b 1 ml living bacterial suspension of 1.0×10^6 CFU/ml of E. coli/DH5α strain was subjected to centrifugation under a cool condition. After removal of the supernatant, the resulting pellet was added with 0.5 ml of 10 mM Tris-HCl buffer solution (pH 8.0) and further added with 10 μl of 1250U/ml protease K solution and 200 μl of 10% SDS solution, followed by overnight bacteriolysis at 50° C.
(§2) Subsequently, each of the treated solution was divided into two equal volumes and dispensed into two 2 ml micro tubes, respectively. Each of them was added with 0.5 ml of saturated phenol solution, then gently mixed for 15 minutes, and then added with 0.5 ml of chloroform, followed by gently mixing for 5 minutes. After that, the mixture was centrifuged at 6,000×g at 4° C. for 10 minutes. An aqueous phase, an upper layer, was transferred into an another 2 ml microtube and then added with 70 μl of 3M sodium acetate (pH 5.2) and 1.21 ml of 99.5% cold ethanol, followed by gentle mixing. […] The concentration of the purified nucleic acid solution was determined based on the absorbance at UV260 nm (50 μg/ml of the nucleic acid was defined as OD=1, cell length=1 cm:OD260).
(§3) The nucleic acid solution thus prepared was adjusted to 175 ng/μl with sterile water and 4 μl aliquot of the nucleic acid solution was then added to each of microtubes. […] The resulting image was recorded on the Polaroid film 667. […]

E. coli/DH5α strain = assay: Antibacterial effect of EMA on living bacteria (number of living bacterial cells); format: cell-based; conditions: 1.0×10^6 CFU/ml E. coli/DH5α, visible light 500 W halogen bulb 20 min
Procedure: (§4) Ethidium monoazide (EMA) was dissolved in sterile water to prepare 1000 μg/ml EMA solution. The solution was filtrated through a 0.2 μm sterile filter (Minisart-plus; manufactured by Sartorius AG). The EMA solution was added so that the final concentration of EMA become 0 (no addition), 0.01, 0.1, 1, 10, and 100 μg/ml, respectively with respect to 1 ml of 1.0×10^6CFU/ml living bacterial suspension of E. coli/DH5α strain, followed by left standing at 4° C. for 1 hour under light interception.
Subsequently, at a distant of 20 cm from the above living bacterial suspension on ice, the sample was irradiated for 20 minutes with visible light from a 500 W halogen bulb (FLOOD PRF 100V 500 W; Iwasaki Electric Co., Ltd., Tokyo). The sample was subjected to centrifugation at 15,000×g at 4° C. for 10 minutes and the supernatant was then removed to eliminate a product generated by the reaction of water with the visible light irradiation product of EMA (hydroxyamino ethidium), which could not covalently bind to nucleic acid. The pellet was added with an equal amount of physiological saline solution and then serially diluted, followed by 24 hour incubation at 37° C. using an L-plate agar culture medium to determine the number of living bacterial cells.

E. coli chromosomal DNA [2] = assay: Influence of EMA plus visible light on isolated E. coli nucleic acid in vitro (agarose gel electrophoresis), chromosomal DNA band; format: biochemical; conditions: visible light 500 W halogen bulb 20 min
Procedure: as §1, §2, §3

[3] = system: chromosomal DNA in the nucleic acid existing inside of the living bacteria (E. coli); assay: Influence of EMA plus visible light on nucleic acid inside living E. coli (in vivo; agarose gel electrophoresis), chromosomal DNA band; format: cell-based; conditions: living E. coli/DH5α suspension, visible light 500 W halogen bulb 20 min
Procedure: as §4, with “EMA” for “Ethidium monoazide (EMA)”, “filtrated for sterilization” for “filtrated”, “μm” for “μm sterile”, “μg/ml” for “μg/ml, respectively”, “leaving” for “left”, “hour.” for “hour under light interception.”
(§5) Subsequently, at a distance of 20 cm from the above living bacterial suspension on ice, the sample was irradiated for 20 minutes with visible light from a 500 W halogen bulb (FLOOD PRF 100V 500 W; Iwasaki Electric Co., Ltd., Tokyo). […]
(§6) Each of the treated solution was divided into two equal volumes and dispensed into two 2 ml micro tubes, respectively. […] The concentration of the purified nucleic acid solution was determined based on the absorbance at UV260 nm (50 μg/ml of the nucleic acid was defined as OD=1, cell length=1 cm:OD260). The purity of the purified nucliec acid was calculated by dividing OD260 with OD280.
(§7) Each of the nucleic acid solutions was prepared at 175 ng/μl and 4 μl of each was then electrophoresed on 0.7% agarose gel. λ-EcoT14 I digest (manufactured by Takara Bio Inc.) was used as a molecular weight marker. […] The resulting image was recorded on the Polaroid film 667. […]

E. coli chromosomal DNA [4] = assay: Electron microscopy of E. coli chromosomal DNA treated with EMA and visible light in vitro; format: biochemical; conditions: visible light 500 W halogen bulb 20 min
Procedure: Nucleic acid was extracted in a manner similar to Example 1 as described above. The nucleic acid was then dissolved in 9 ml of sterile water. A nucleic acid solution thus prepared was gently loaded on the top of 32 ml sucrose density gradient (16 ml of 10% sucrose solution and 16 ml of 40% sucrose solution were used) and then subjected to ultracentrifugation at 26,000 rpm at 20° C. for 18 hours with a swing rotor (manufactured by Hitachi Koki Co., Ltd.: RPS-27-2). After the centrifugation, a small hole was opened in the bottom of the sucrose density gradient solution and then fractionated every 1 ml.
After that, for each fraction, 3M sodiumacetate solution (pH 5.2) was added so as to be 10% (vol/vol). Then, 2-fold volume of 99.5% ethanol was added. Subsequently, the fraction was subjected to centrifugation at 15,000×g at 4° C. for 10 minutes to recover the pellet. Then, the pellet was washed with 70% ethanol and then dissolved in 100 μl of sterile water.
Among the samples obtained from the respective fraction solutions, a sample only containing a long chromosomal DNA with 48 kbp in agarose electrophoresis was further diluted with sterile water so as to be a DNA concentration of 175 ng/μl. Then 4 μl of each aqueous EMA solution (0, 0.02, 2, and 20 μg/ml) was added to 4 μl of the DNA solution and then left standing at 4° C. for 1 hour under light interception. […]

[5] = system: rRNA (16SrRNA and 23SrRNA) of living bacteria (E. coli); assay: Influence of EMA plus visible light on nucleic acid inside living E. coli (in vivo; agarose gel electrophoresis), rRNA bands; format: cell-based; conditions: EMA 10 μg/ml; living E. coli/DH5α suspension; visible light 500 W halogen bulb 20 min
Procedure: as §4, with “EMA” for “Ethidium monoazide (EMA)”, “filtrated for sterilization” for “filtrated”, “μm” for “μm sterile”, “μg/ml” for “μg/ml, respectively”, “leaving” for “left”, “hour.” for “hour under light interception.”
as §5, §6, §7

For CC[n+]1c(-c2ccccc2)c2cc(N=[N+]=[N-])ccc2c2ccc(N)cc21.[Cl-] [EMA, 3-amino-8-azido-5-ethyl-6-phenyl-phenanthridinium chloride], the “band intensity of rRNA (16SrRNA and 23SrRNA)” value (shortened to “band intensity of rRNA”) ([1]; EMA 1 μg/ml) was “decreased”, the “band intensity of rRNA” value ([1]; EMA 10 μg/ml or more) was “disappeared” and the “decrease in number of living bacterial cells in comparison with the original number” value (E. coli/DH5α strain; EMA 10 μg/ml) was ~10^2 CFU/ml. For the same compound, the “decrease in number of living bacterial cells in comparison with the original number” value (E. coli/DH5α strain; EMA 100 μg/ml) was ~10^5 CFU/ml, the “intensity of the band originated from the chromosomal DNA of approximately 19,329 bps” value (“intensity of the band originated” below) (E. coli chromosomal DNA [2]; EMA 100 ng/ml to 1 μg/ml) was “gradually decreased” and the “intensity of the band originated” value (E. coli chromosomal DNA [2]; EMA 10 μg/ml) was “significantly disappeared”. The “intensity of the band originated” value ([3]; EMA 10 μg/ml) was “gradually decreased”, the “intensity of the band originated” value ([3]; EMA 100 μg/ml) was “significantly disappeared” and the “effect of cleaving the chromosomal DNA (electron microscopy)” value (E. coli chromosomal DNA [4]; EMA 0 to 0.01 μg/ml) was “not observed”. The “effect of cleaving the chromosomal DNA (electron microscopy)” value (E. coli chromosomal DNA [4]; EMA 1 μg/ml or more) was “caused the cleaving phenomenon of chromosomal DNA” and the “band intensity of rRNA” value [5] was “decreased”.
